Assay results published in US20250230193A1, “CYCLIC COMPOUND HAVING SELECTIVE KRAS INHIBITORY EFFECT ON HRAS AND NRAS” (CHUGAI SEIYAKU KABUSHIKI KAISHA, priority 2022, published 2025).
Where a SMILES comes first, the peptide text is derived from it. Bridges are numbered along the chain shown (N, C = ends). [ ]: non-standard residue; d: D form. The star is where a group is joined. hPhe(3,5-F2-4-CF3) = N[C@@H](CCc1cc(F)c(C(F)(F)F)c(F)c1)C(=O)O; hPhe(3-Cl-4-CF3) = N[C@@H](CCc1ccc(C(F)(F)F)c(Cl)c1)C(=O)O; NPrPhe(4-CF3) = CCCN[C@@H](Cc1ccc(C(F)(F)F)cc1)C(=O)O; NMeGly(cPent) = CN[C@H](C(=O)O)C1CCCC1; NMeD = CN[C@@H](CC(=O)O)C(=O)O; NMeL = CN[C@@H](CC(C)C)C(=O)O; Oxazolidin(3-yl) = C1CN(*)CO1; αMeS = C[C@](N)(CO)C(=O)O; Morpholide = C1CN(*)CCO1; NMeA = CN[C@@H](C)C(=O)O; Ac5c = NC1(C(=O)O)CCCC1; Aze = O=C(O)[C@@H]1CCN1; Ac4c = NC1(C(=O)O)CCC1; X25 = CC1(C)CCN(*)C1; NEtG = CCNCC(=O)O; Sar = CNCC(=O)O; tBu = CC(C)(C)*

Experiments:
[1] = target: GDP-bound HRAS wild-type protein (Homo sapiens, UniProt P01112); assay: Binding to HRAS by surface plasmon resonance (SPR), Single Cycle Kinetics; details: SPR; for HRAS/KRAS (ratio of KD value with respect to HRAS to KD value with respect to KRAS) / HRAS/KRAS (ratio of KD value for HRAS to KD value for KRAS): GDP-bound HRAS wild-type vs GDP-bound KRAS wild-type
Chain of GDP-bound HRAS wild-type protein (P01112 whole entry): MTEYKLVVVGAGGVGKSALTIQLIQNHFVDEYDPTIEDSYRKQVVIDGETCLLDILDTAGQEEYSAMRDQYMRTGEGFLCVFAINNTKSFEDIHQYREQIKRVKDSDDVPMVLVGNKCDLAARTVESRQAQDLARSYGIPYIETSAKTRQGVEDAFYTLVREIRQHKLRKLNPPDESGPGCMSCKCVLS

[2] = target: GDP-bound NRAS wild-type protein (Homo sapiens, UniProt P01111); assay: Binding to NRAS by surface plasmon resonance (SPR), Single Cycle Kinetics; details: SPR; for NRAS/KRAS (ratio of KD value with respect to NRAS to KD value with respect to KRAS) / NRAS/KRAS (ratio of KD value for NRAS to KD value for KRAS): GDP-bound NRAS wild-type vs GDP-bound KRAS wild-type
Chain of GDP-bound NRAS wild-type protein (P01111 whole entry): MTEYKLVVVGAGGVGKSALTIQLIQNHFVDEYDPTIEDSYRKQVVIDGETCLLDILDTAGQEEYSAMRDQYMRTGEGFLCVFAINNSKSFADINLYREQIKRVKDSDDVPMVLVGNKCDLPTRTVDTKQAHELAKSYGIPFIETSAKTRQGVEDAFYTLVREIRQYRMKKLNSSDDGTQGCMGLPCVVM

CCCOC[C@H]1C(=O)N[C@@H]([C@@H](C)CC)C(=O)N(C)CC(=O)N(C)[C@H]2C/C=C\CCN(C2=O)[C@@H](CC2CCC(F)(F)CC2)C(=O)N(C)CC(=O)N[C@@H](CCc2ccc(C(F)(F)F)c(OC)c2)C(=O)N2C[C@H](OCC)C[C@H]2C(=O)N(C)C2(CCC2)C(=O)N(C)[C@@H](C2CCCC2)C(=O)N(C)[C@H](C(=O)N(C)C)CC(=O)N1C [PP2350]
HRAS/KRAS (ratio of KD value with respect to HRAS to KD value with respect to KRAS) [1]: A (a compound having 10 or more and less than 20 is denoted as A) | NRAS/KRAS (ratio of KD value with respect to NRAS to KD value with respect to KRAS) [2]: A (a compound having 10 or more and less than 20 is denoted as A)

CCCN1C(=O)[C@@H]2CCN2C(=O)[C@H](C)N(C)C(=O)[C@H]([C@@H](C)CC)NC(=O)[C@H](CC(C)C)N(C)C(=O)C[C@@H](C(=O)N2CCC(C)(C)C2)N(C)C(=O)[C@H](C2CCCC2)N(C)C(=O)C2(CCCC2)NC(=O)[C@@H]2CCCN2C(=O)[C@H](CCc2ccc(C(F)(F)F)c(Cl)c2)NC(=O)CN(C)C(=O)[C@@H]1Cc1ccc(C(F)(F)F)cc1 [PP0186] ([NMeL]I[NMeA][Aze][NPrPhe(4-CF3)][Sar][hPhe(3-Cl-4-CF3)]P[Ac5c][NMeGly(cPent)][NMeD]-X25; lactam N-11)
HRAS/KRAS (ratio of KD for GDP-bound HRAS wild-type to KD for KRAS) [1]: B (a compound having 3 or more and less than 10 is denoted as B) | NRAS/KRAS (ratio of KD for GDP-bound NRAS wild-type to KD for KRAS) [2]: C (A compound having a KD ratio of 0.1 or more and less than 3 is denoted as C)

CCCN1C(=O)[C@@H]2CCN2C(=O)[C@H](C)N(C)C(=O)[C@H]([C@@H](C)CC)NC(=O)[C@H](CC(C)C)N(C)C(=O)C[C@@H](C(=O)N2CCOC2)N(C)C(=O)[C@H](C2CCCC2)N(C)C(=O)C2(CCCC2)NC(=O)[C@@H]2CCCN2C(=O)[C@H](CCc2ccc(C(F)(F)F)c(Cl)c2)NC(=O)CN(C)C(=O)[C@@H]1Cc1ccc(C(F)(F)F)cc1 [PP0183] ([NMeL]I[NMeA][Aze][NPrPhe(4-CF3)][Sar][hPhe(3-Cl-4-CF3)]P[Ac5c][NMeGly(cPent)][NMeD]-{Oxazolidin(3-yl)}; lactam N-11)
HRAS/KRAS (ratio of KD for GDP-bound HRAS wild-type to KD for KRAS) [1]: B (a compound having 3 or more and less than 10 is denoted as B) | NRAS/KRAS (ratio of KD for GDP-bound NRAS wild-type to KD for KRAS) [2]: C (A compound having a KD ratio of 0.1 or more and less than 3 is denoted as C)

CCCO[C@@H]1C[C@H]2C(=O)NC3(CC(C)(C)C3)C(=O)N(C)[C@@H](C3CCCC3)C(=O)N(C)[C@H](C(=O)N3CCCC3)CC(=O)N(C)[C@H]3CCCCc4ccc(cc4)C[C@@H](C(=O)N(C)CC(=O)N[C@@H](CCc4ccc(C(F)(F)F)c(OC)c4)C(=O)N2C1)N1CC/C=C\C[C@@H](C1=O)N(C)C(=O)CN(C)C(=O)[C@H]([C@@H](C)CC)NC3=O [PP3094, (1S,7S,11R,13S,19S,22S,26S,29S,35S,37Z)-19-cyclopentyl-7-[2-[3-methoxy-4-(trifluoromethyl)phenyl]ethyl]-3,3′,3′,18,21,25,31,34-octamethyl-29-[(1S)-1-methylpropyl]-11-propoxy-22-(pyrrolidine-1-carbonyl)spiro[3,6,9,15,18,21,25,28,31,34,41-undecazapentacyclo[24.15.9.2^43,46.1^35,41.0^9,13]tripentaconta-37,43(52),44,46(51)-tetraene-16,1′-cyclobutane]-2,5,8,14,17,20,24,27,30,33,53-undecone]
HRAS/KRAS (ratio of KD value with respect to GDP-bound HRAS wild-type protein to KD value with respect to KRAS) ([1]; GDP-bound wild-type proteins): B (a compound having 3 or more and less than 10 is denoted as B) | NRAS/KRAS (ratio of KD value with respect to GDP-bound NRAS wild-type protein to KD value with respect to KRAS) ([2]; GDP-bound wild-type proteins): A (a compound having 10 or more and less than 20 is denoted as A)

CCCN1C(=O)CN(C)C(=O)CN(CC)C(=O)[C@H]([C@@H](C)CC)NC(=O)[C@H](CC(C)C)N(C)C(=O)C[C@@H](C(=O)N(C)C)NC(=O)[C@H](C2CCCC2)N(C)C(=O)C2(CCC2)NC(=O)[C@@H]2CCCN2C(=O)[C@H](CCc2ccc(C(F)(F)F)c(Cl)c2)NC(=O)CN(C)C(=O)[C@@H]1Cc1ccc(C(F)(F)F)cc1 [PP0368] ([NMeL]I[NEtG][Sar][NPrPhe(4-CF3)][Sar][hPhe(3-Cl-4-CF3)]P[Ac4c][NMeGly(cPent)]D-NMe2; lactam N-11)
HRAS/KRAS (ratio of KD for GDP-bound HRAS wild-type to KD for KRAS) [1]: B (a compound having 3 or more and less than 10 is denoted as B) | NRAS/KRAS (ratio of KD for GDP-bound NRAS wild-type to KD for KRAS) [2]: B (a compound having 3 or more and less than 10 is denoted as B)

C#CCN1CC(=O)N(C)[C@H]2C/C=C\CCN(C2=O)[C@@H](Cc2ccc(C(F)(F)F)cc2)C(=O)N(C)CC(=O)N[C@@H](CCc2ccc(C(F)(F)F)c(OC)c2)C(=O)N2C[C@H](OCC)C[C@H]2C(=O)NC2(CC(C)(C)C2)C(=O)N(C)[C@@H](C2CCCC2)C(=O)N(C)[C@H](C(=O)N(C)C)CC(=O)N(C)[C@@H](CC)C(=O)N[C@@H]([C@@H](C)CC)C1=O [PP2091]
HRAS/KRAS (ratio of KD value with respect to HRAS to KD value with respect to KRAS) [1]: B (a compound having 3 or more and less than 10 is denoted as B) | NRAS/KRAS (ratio of KD value with respect to NRAS to KD value with respect to KRAS) [2]: A (a compound having 10 or more and less than 20 is denoted as A)

CCCN1C(=O)CN(C)C(=O)CN(C)C(=O)[C@H]([C@@H](C)CC)NC(=O)[C@H](CC(C)C)N(C)C(=O)C[C@@H](C(=O)N2CCOCC2)N(C)C(=O)[C@H](C2CCCC2)N(C)C(=O)[C@](C)(COC(C)(C)C)NC(=O)[C@@H]2CCCN2C(=O)[C@H](CCc2cc(F)c(C(F)(F)F)c(F)c2)NC(=O)CN(C)C(=O)[C@@H]1Cc1ccc(C(F)(F)F)cc1 [PP0764] ([NMeL]I[Sar][Sar][NPrPhe(4-CF3)][Sar][hPhe(3,5-F2-4-CF3)]P[αMeS](tBu)[NMeGly(cPent)][NMeD]-Morpholide; lactam N-11)
HRAS/KRAS (ratio of KD value with respect to GDP-bound HRAS wild-type protein to KD value with respect to KRAS) [1]: B (a compound having 3 or more and less than 10 is denoted as B) | NRAS/KRAS (ratio of KD value with respect to GDP-bound NRAS wild-type protein to KD value with respect to KRAS) [2]: B (a compound having 3 or more and less than 10 is denoted as B)

CCCOC[C@H]1C(=O)N[C@@H]([C@@H](C)CC)C(=O)N(C)CC(=O)N(C)[C@H]2C/C=C\CCN(C2=O)[C@@H](Cc2ccc(C)cc2)C(=O)N(C)CC(=O)N[C@@H](CCc2ccc(C(F)(F)F)c(OC)c2)C(=O)N2C[C@H](OCC)C[C@H]2C(=O)N(C)C2(CCC2)C(=O)N(C)[C@@H](C(CC)CC)C(=O)N(C)[C@H](C(=O)N(C)C)CC(=O)N1C [PP2323]
HRAS/KRAS (ratio of KD value with respect to HRAS to KD value with respect to KRAS) [1]: A (a compound having 10 or more and less than 20 is denoted as A) | NRAS/KRAS (ratio of KD value with respect to NRAS to KD value with respect to KRAS) [2]: A (a compound having 10 or more and less than 20 is denoted as A)

CCO[C@@H]1C[C@H]2C(=O)NC3(CCC3)C(=O)N(C)[C@@H](C3CCCC3)C(=O)N(C)[C@H](C(=O)N(C)C)CC(=O)N(C)[C@@H](CC)C(=O)N[C@@H]([C@@H](C)CC)C(=O)N(C)CC(=O)N(C)[C@H]3C[C@@H](C)CCN(C3=O)[C@@H](Cc3ccc(C(F)(F)F)cc3)C(=O)N(C)CC(=O)N[C@@H](CCc3cc(F)c(C(F)(F)F)c(F)c3)C(=O)N2C1 [PP1020]
HRAS/KRAS (ratio of KD value with respect to HRAS to KD value with respect to KRAS) ([1]; KD ratio): B (a compound having 3 or more and less than 10 is denoted as B) | NRAS/KRAS (ratio of KD value with respect to NRAS to KD value with respect to KRAS) ([2]; KD ratio): C (A compound having a KD ratio of 0.1 or more and less than 3 is denoted as C)

CCO[C@@H]1C[C@H]2C(=O)NC3(CC(C)(C)C3)C(=O)N(C)[C@@H](C3CCCC3)C(=O)N(C)[C@H](C(=O)N(C)C)CC(=O)N(C)[C@@H](C)C(=O)N[C@@H]([C@@H](C)CC)C(=O)N(C)CC(=O)N(C)[C@H]3CCCCCN(C3=O)[C@@H](Cc3ccc(C(F)(F)F)cc3)C(=O)N(C)CC(=O)N[C@@H](CCc3cc(F)c(C(F)(F)F)c(F)c3)C(=O)N2C1 [PP0723]
HRAS/KRAS (ratio of KD value with respect to GDP-bound HRAS wild-type protein to KD value with respect to KRAS) [1]: B (a compound having 3 or more and less than 10 is denoted as B) | NRAS/KRAS (ratio of KD value with respect to GDP-bound NRAS wild-type protein to KD value with respect to KRAS) [2]: B (a compound having 3 or more and less than 10 is denoted as B)

CCO[C@@H]1C[C@H]2C(=O)NC3(CC(C)(C)C3)C(=O)N(C)[C@@H](C3CCCC3)C(=O)N(C)[C@H](C(=O)N(C)CC)CC(=O)N(C)[C@H]3CCCC/C=C/c4ccc(cc4)C[C@@H](C(=O)N(C)CC(=O)N[C@@H](CCc4cc(F)c(C(F)(F)F)c(F)c4)C(=O)N2C1)N1CC/C=C\C[C@@H](C1=O)N(C)C(=O)CN(C)C(=O)[C@H]([C@@H](C)CC)NC3=O [PP1829]
HRAS/KRAS (ratio of KD value for HRAS to KD value for KRAS) ([1]; KD ratio): B (a compound having 3 or more and less than 10 is denoted as B) | NRAS/KRAS (ratio of KD value for NRAS to KD value for KRAS) ([2]; KD ratio): A (a compound having 10 or more and less than 20 is denoted as A)

CCO[C@@H]1C[C@H]2C(=O)NC3(CCCC3)C(=O)N(C)[C@@H](C3CCCC3)C(=O)N(C)[C@H](C(=O)N(C)C)CC(=O)N(C)[C@@H](CC(C)C)C(=O)N[C@@H]([C@@H](C)CC)C(=O)N(C)CC(=O)N(C)[C@H]3C/C=C\CCN(C3=O)[C@@H](Cc3ccc(C)cc3)C(=O)N(C)CC(=O)N[C@@H](CCc3ccc(C(F)(F)F)c(Cl)c3)C(=O)N2C1 [PP2195]
HRAS/KRAS (ratio of KD value with respect to HRAS to KD value with respect to KRAS) [1]: A (a compound having 10 or more and less than 20 is denoted as A) | NRAS/KRAS (ratio of KD value with respect to NRAS to KD value with respect to KRAS) [2]: A (a compound having 10 or more and less than 20 is denoted as A)

CC[C@H](C)[C@@H]1NC(=O)[C@H](CC(C)C)N(C)C(=O)C[C@@H](C(=O)N(C)CC)N(C)C(=O)[C@H](C2CCCC2)N(C)C(=O)C2(CC(C)(C)C2)NC(=O)[C@@H]2C[C@H](C)CN2C(=O)[C@H](CCc2ccc(C(F)(F)F)c(OC)c2)NC(=O)CN(C)C(=O)[C@H](Cc2ccc(C)cc2)N2CC/C=C\C[C@@H](C2=O)N(C)C(=O)CN(C)C1=O [PP1906]
HRAS/KRAS (ratio of KD value for HRAS to KD value for KRAS) ([1]; KD ratio): A (a compound having 10 or more and less than 20 is denoted as A) | NRAS/KRAS (ratio of KD value for NRAS to KD value for KRAS) ([2]; KD ratio): A (a compound having 10 or more and less than 20 is denoted as A)
